The conditions of data set [1]: mice on a high-fat diet supplemented with NR; cited from earlier work.
The nature of data set [2]: Fecal and activity scores of piglets given NR solution. In kind it is in vivo, piglets (Yorkshire/Hampshire crossbred). The conditions noted are these: for Activity Score: scale 4=alert, attentive to 1=very lethargic; for Fecal Score: scale 4=normal (solid) to 1=severe diarrhea (liquid). The text has this:
Sixteen (n=16) Yorkshire/Hampshire crossbred piglets were obtained from the University of California, Davis Swine Teaching and Research Center and received on lactation day (“LD”) 14. Prior to arrive, the piglets were processed by the suppler between 1-3 days of age by administration of iron and an antibiotic ([…] for swine) as is common practice at the University of California, Davis Swine Facility. It is not common practice at the University of California, Davis Swine Facility to give a second dose of iron and antibiotics unless it becomes necessary. The piglets were from two litters (litters 15 and 17), weaned at 17 days of age, and randomly placed into one of two groups balanced for litter, sex, and weight. The animals were not acclimated to the facility at arrival and were subsequently acclimated to the test diet administration system. The piglets were weaned into a temperature-controlled room (approximately 27-29° C.) that contained 10 adjacent pens. The piglets were group-housed in the nursery room at the Swine Facility, which is an enclosed room with access restricted to trained personnel. The two groups were separated by one pen containing piglets of similar age. Each morning enough nicotinamide riboside (NR, I) in water solution was prepared for that day's dose administration according to the dose preparation protocol. At least 5 mL of prepared dose was reserved and immediately frozen after preparation each day for analysis of nicotinamide riboside (NR, I) for the purpose of confirming stability of the dose material. The doses were stored at refrigeration temperature while not in use. Nicotinamide riboside (NR, I) was dosed once per day in the morning and at the same time each day. Piglets in the control group received the same volume of plain water and were dosed on the same schedule. Starting on Day 1, animals in the nicotinamide riboside (NR, I) group were dosed once daily (in the morning) with 277 mg nicotinamide riboside (NR, I) per pig resuspended in water for seven days. After one week, animals were dosed once daily with 342 mg nicotinamide riboside (NR, I) per pig delivered in 2.5 mL for seven days. For Days 1 and 2, the nicotinamide riboside (NR, I) solution was prepared by resuspending 2770 mg nicotinamide riboside (NR, I) in 50 mL water, and 5 mL of this solution was delivered to each pig by squirting it into the back of the mouth using a 10 mL syringe with a piece of tubing attached to the end. To reduce the volume to more efficiently deliver the nicotinamide riboside (NR, I) solution, the 2770 mg was resuspended in 25 mL water and 2.5 mL of the solution was squirted into the back of the mouth of each pig using a 3 mL syringe for Days 3-7. For Days 8-14, 3420 mg nicotinamide riboside (NR, I) was resuspended in 25 mL water and 2.5 mL of this solution was delivered to each pig. Each day prior to dosing, 2.5 mL of the nicotinamide riboside (NR, I) (5 mL on Days 1 and 2) were placed into a separate tube and frozen. All animals were weighed at weaning (baseline) and after one and two weeks of nicotinamide riboside (NR, I) supplementation. Fecal and activity scores were recorded daily using the scales listed below. Weights and fecal scores were analyzed using a two-factor repeated measures ANOVA (mixed-model ANOVA) with p values<0.05 considered significant. The fecal consistency scale used is as follows: 4=normal (solid); 3=soft feces (semi-solid); 2=mild diarrhea (semi liquid); 1=severe diarrhea (liquid).

Setting [3] is: Wk 1, 277 mg/pig once daily oral.
The mark [4] stands for this setting: Wk 2, 342 mg/pig once daily oral Days 8-14.

For `NC(=O)c1ccc[n+]([C@@H]2O[C@H](CO)[C@@H](O)[C@H]2O)c1` [NR, Nicotinamide riboside], the “less weight gained on a high-fat diet” value in data set [1] is given as 40%. Also, the “fecal scores, NR vs. control” value in data set [2] (2-week intervention) was “not statistically different”. Moreover, the “Activity Score” value in data set [2] (Baseline, before dosing) came out at 4.0; in data set [2] (setting [3]), 4.0; in data set [2] (setting [4]) it was 4.0. The “Fecal Score” value in data set [2] (Baseline, before dosing) is recorded as 3.78 ± 0.39; in data set [2] (setting [3]), 2.93 ± 0.67; in data set [2] (setting [4]), 2.90 ± 0.60.

The values above are taken from US12433908B2, “Use of nicotinamide riboside, nicotinic acid riboside, and nicotinamide mononucleotide, reduced nicotinyl compounds, and nicotinoyl compound derivatives in infant formula for healthy development” (ChromaDex, Inc., priority 2016, dated 2025).
